Experiments:
[1] = tested on: IL-8; experiment: UVB-mediated induction of IL-8 in pterygium epithelial cells, sandwich immunoassay of supernatants; type: cell-based, human; settings: for IL-8 production post-radiation (effect in words) / IL-8 levels: 20 mJ/cm^2 UVB; for IL-8 production post-radiation (effect in words): 10 μM PD98059, 1 μM SB202190, 1 μM SB203580, 1 μM hydrocortisone; for IL-8 levels: supernatant after 48 hrs, UVB alone 166.6±22.5 pg/ml
Experimental: (§1) Pterygium-derived epithelial cells (PEC) were seeded at 1×10^6 cells in 100 mm tissue culture dishes (Corning, N.Y.) or at a density of 1.5×10^5 cells per well in 6-well plates (Nunc, Denmark) and grown in the presence of 10% FBS/EMEM. Once cells reached semi-confluence, the medium was aspirated, cells washed three times with sterile PBS, and left in serum-free medium for 16 hrs as previously described (Di Girolamo N., et al. Prog Retin Eye Res. 2004; 23:195-228), (Di Girolamo N., et al., Invest Opthalmol Vis Sci. 2000; 41:671-679), (Di Girolamo N., et al., Invest Opthalmol Vis Sci. 2002; 43:3430-3437), (Nolan T, et al., Am J Pathol. 2003; 162:567-574), (Di Girolamo., et al., Invest Ophthalmol Vis Sci. 2003; 44:4705-4714). In some experiments, cells were pre-incubated with selective inhibitors of ERK1/2, JNK, and p38 MAPKs (Calbiochem, Calif.). These included 10 μM PD98059, 1 μM SB202190, and 1 μM SB203580, respectively. In addition, 1 μM hydrocortisone (Sigma, St Louis, […].) was added to some cells as a broad-spectrum negative regulator of cytokine production.
(§2) To determine whether surface receptors were involved in transmitting the UVB signal, some cells were pre-incubated for 1 hr with 0.1 μM PD153035 (Calbiochem), an inhibitor of the tyrosine kinase activity of the EGFR or with 0.1 μM AG1295 (Calbiochem) an inhibitor of the tyrosine kinase activity of the PDGFR. While in other experiments, cells were pre-treated with RA (0-0.1 μM; Sigma) or IFN-α (0-15,000 U; PBL Biomedical Laboratories, Piscataway, N.J.). This medium was replaced with PBS and monolayers irradiated with 20 mJ/cm^2 of UVB using FL20SE bulbs (Philips, Sydney, Australia) as previously reported (Di Girolamo N., et al. Prog Retin Eye Res. 2004; 23:195-228), (Di Girolamo N., et al., Invest Opthalmol Vis Sci. 2002; 43:3430-3437), (Nolan T, et al., Am J Pathol. 2003; 162:567-574), (Di Girolamo., et al., Invest Ophthalmol Vis Sci. 2003; 44:4705-4714). UVB light intensity was monitored and calibrated prior to each experiment with the aid of a radiometer IL1400A (International Light, Newburyport, Mass.). After each exposure, PEC were rinsed once with PBS and placed in fresh serum-free medium with the respective compounds, then incubated for a further 48 hrs. Supernatants were collected, cleared of any cell debris by centrifugation, and stored frozen in small aliquots at −70° C. The compounds used in these experiments were non-toxic at all doses tested.
(§3) Human IL-6, IL-8, and VEGF (Quantikine™; R&D Systems, Minneapoli, Minn.) were quantified using sandwich immunoassays. Cytokines in supernatants from control (mock irradiated), or UVB-exposed PEC were captured on antibody-coated 96-well plates, and detection performed precisely as directed by the manufacturer. The optical density of the reaction product was read at the appropriate wavelength using a microplate reader (Spectramax™ Plus, Molecular Devices, Sunnyvale, Calif.).
(§4) Cytokine levels in the culture supernatants were expressed as mean±standard deviation. Difference in cytokine level between control and UV treated cells was assessed by one-way analysis of variance, followed by the Newman-Keuls test for multiple comparisons of treatment groups with the control group. A commercial software package (Prism; GraphPad Software, San Diego, Calif.) was used for analysis.

[2] = tested on: IL-6; experiment: UVB-mediated induction of IL-6 in pterygium epithelial cells, sandwich immunoassay of supernatants; type: cell-based, human; settings: for IL-6 production post-radiation (effect in words): 10 μM PD98059, 1 μM SB202190, 1 μM SB203580, 1 μM hydrocortisone
Experimental: as §1, §2, §3, §4

[3] = tested on: VEGF; experiment: UVB-mediated induction of VEGF in pterygium epithelial cells, sandwich immunoassay of supernatants; type: cell-based, human; settings: for VEGF production post-radiation (effect in words) / VEGF production: 20 mJ/cm^2 UVB; for VEGF production post-radiation (effect in words): 10 μM PD98059, 1 μM SB202190, 1 μM SB203580, 1 μM hydrocortisone; for VEGF production: PEC pre-incubated 1 hr with 0.1 μM inhibitor, supernatant after 48 hrs, UVB alone 166.5±11.0 pg/ml
Experimental: as §1, §2, §3, §4

[4] = tested on: pterygium; settings: retrospective study of 164 patients, pterygium surgery with associated treatment; cited from earlier work
[5] = topical ocular use; cited from earlier work
[6] = PEC, single dose of UVB, several concentrations: RA 0-0.1 μM, IFN-α 0-15,000 U

| Compound | IL-8 production post-radiation (effect in words) ([1]; PEC) | IL-6 production post-radiation (effect in words) ([2]; PEC, 20 mJ/cm^2 UVB) | VEGF production post-radiation (effect in words) ([3]; PEC) | further results |
| --- | --- | --- | --- | --- |
| Oc1ccc(-c2nc(-c3ccncc3)c(-c3ccc(F)cc3)[nH]2)cc1 [SB202190] | significantly abrogated | significantly abrogated | only partially, but significantly reduced |  |
| COc1cc2ncnc(Nc3cccc(Br)c3)c2cc1OC [PD153035] |  |  |  | IL-8 levels ([1]; PEC pre-incubated 1 hr with 0.1 μM inhibitor): 74.4 ± 23.6 pg/mL; VEGF production [3]: 109.1 ± 1.5 pg/mL |
| Cc1cc2ncc(-c3ccccc3)nc2cc1C [AG1295] |  |  |  | IL-8 levels ([1]; PEC pre-incubated 1 hr with 0.1 μM PD153035 (EGFR inhibitor) or 0.1 μM AG1295 (PDGFR inhibitor)): 174 ± 60.3 pg/mL; IL-6 levels ([2]; PEC pre-incubated 1 hr with 0.1 μM inhibitor, 20 mJ/cm^2 UVB, supernatant after 48 hrs, UVB alone 356.2±32.1): 217 ± 42 pg/mL; VEGF production [3]: 132.7 ± 8.0 pg/mL |
| IFN-α |  |  |  | IL-8 protein production (effect in words) [1, 6]: dose-dependently inhibited; IL-6 protein production (effect in words) [2, 6]: dose-dependently inhibited; UVB-mediated induction of VEGF (effect in words) [3, 6]: no significant inhibitory effect |
| CO[C@@]12[C@H](COC(N)=O)C3=C(C(=O)C(C)=C(N)C3=O)N1C[C@@H]1N[C@@H]12 [mitomyacin C] |  |  |  | pterygium regrowth [4]: 8.74%; complications [5]: corneoscleral melting, cataract and secondary glaucoma |
| C[S+]([O-])c1ccc(-c2nc(-c3ccncc3)c(-c3ccc(F)cc3)[nH]2)cc1 (stereo not shown) [SB203580] | significantly abrogated | significantly abrogated | only partially, but significantly reduced |  |
| COc1cccc(-c2cc(=O)c3ccccc3o2)c1N [PD98059] | significantly abrogated | significantly abrogated | only partially, but significantly reduced |  |
| C[C@]12CCC(=O)C=C1CC[C@@H]1[C@@H]2[C@@H](O)C[C@@]2(C)[C@H]1CC[C@]2(O)C(=O)CO [Hydrocortisone, hydrocortisone] | near control levels | near control levels | near control levels |  |
